# Legend:
# Hepatocyte [1] = test: Hepatoprotective activity against D-GaIN/TNFalpha-induced cell death in mouse hepatocyte at 200 uM relative to control; assay type: functional
# Hepatocyte [2] = test: Hepatoprotective activity against D-GaIN/TNFalpha-induced cell death in mouse hepatocyte at 100 uM relative to control; assay type: functional, cell-based; conditions: dose 100 µM
# Hepatocyte [3] = test: Hepatoprotective activity against D-GaIN/TNFalpha-induced cell death in mouse hepatocyte at 50 uM relative to control; assay type: functional
# Hepatocyte [4] = test: Hepatoprotective activity against H2O2-induced cell damage in rat hepatocyte assessed as reduction in cell growth; assay type: functional, cell-based
# Hepatocyte [5] = test: Hepatoprotective activity against D-GaIN/TNFalpha-induced cell death in mouse hepatocyte at 100 uM; assay type: functional, cell-based
# Hepatocyte [6] = test: Hepatoprotective activity against D-GaIN/TNFalpha-induced cell death in mouse hepatocytes at 50 uM assessed as inhibition of cell death relative to control; assay type: functional; set-up: scale not given: the % may be the effect or the level left
# [7] = Hepatotoxicity in rat assessed as reduction in GPT level at 0.01 mg/mL measured after 48 hrs (reference value: 291 IU/L); assay type: toxicity; conditions: in vivo
# [8] = Hepatotoxicity in rat assessed as reduction in GPT level at 1.0 mg/mL measured after 48 hrs (reference value: 291 IU/L); assay type: toxicity; conditions: in vivo
# Rattus norvegicus = test: Hepatoprotective activity in GaIN-induced rat model of liver injury assessed as reduction in ALT level at 4 mg/kg relative to control; assay type: functional; set-up: scale not given: the % may be the effect or the level left
# [9] = Hepatoprotective activity against D-Galactosamine-induced toxicity in rat WB-F344 cells assessed as cell survival rate at 10 uM relative to control; assay type: functional
# [10] = Hepatoprotective activity against D-GaIN - induced toxicity in rat WB-F344 cells assessed as inhibition of cell growth relative to control; assay type: functional; set-up: scale not given: the % may be the effect or the level left
# Hepatocyte [11] = test: Hepatoprotective activity against CCL4-induced rat hepatocyte toxicity assessed as decrease in GOT level at 3.33 mg/mL preincubated for 30 mins followed by CCL4 addition and measured after 180 mins by colorimetric method; assay type: functional; conditions: time 210 min, 3.5 h
# Hepatocyte [12] = test: Hepatoprotective activity against CCL4-induced rat hepatocyte toxicity assessed as decrease in GPT level at 3.33 mg/mL preincubated for 30 mins followed by CCL4 addition and measured after 180 mins by colorimetric method; assay type: functional; conditions: time 210 min, 3.5 h
# Hepatocyte [13] = test: Hepatoprotective activity against CCL4-induced rat hepatocyte toxicity assessed as decrease in ALP level at 3.33 mg/mL preincubated for 30 mins followed by CCL4 addition and measured after 180 mins by colorimetric method; assay type: functional; conditions: time 210 min, 3.5 h
# Mus musculus [14] = test: Hepatoprotective activity against D-GaIN/CCl4 induced liver injury mouse model assessed as reduction in GPT level at 1.0 microg/ml, iv relative to control; assay type: functional; set-up: scale not given: the % may be the effect or the level left; conditions: dose 1 µg/ml
# Hepatocyte [15] = test: Hepatoprotective activity against D-GaIN/TNFalpha-induced cell death in mouse hepatocyte at 25 uM relative to control; assay type: functional
# Hepatocyte [16] = test: Hepatoprotective activity against D-GaIN/TNFalpha -induced cell death in mouse hepatocyte assessed as inhibition at 50 uM relative to control; assay type: functional; set-up: scale not given: the % may be the effect or the level left
# Hepatocyte [17] = test: Hepatoprotective activity against D-GaIN-induced toxicity in mouse hepatocyte relative to control; assay type: functional, cell-based
# Mus musculus [18] = test: Hepatoprotective activity in mouse model of D-GaIN/LPS-induced liver injury assessed as inhibition of sAST secretion at 100 mg/kg, po relative to control; assay type: functional
# Mus musculus [19] = test: Hepatoprotective activity in mouse model of D-GaIN/LPS-induced liver injury assessed as inhibition of sALT level secretion at 100 mg/kg, po relative to control; assay type: functional
# [20] = Cytotoxicity against human HepG2 cells assessed as reduction in cell viability by SRB assay; assay type: toxicity, cell-based
# Huh-7 = test: Hepatoprotective activity against CCL4-induced mouse model in human Huh-7 cells assessed as decrease in ALT level at 100 ug/mL; assay type: functional; conditions: dose 100 µg/ml
smiles,measurement,setting,value
CC1(C)CC[C@]2(C(=O)O)CC[C@]3(C)[C@H](C=C[C@@H]4[C@@]5(C)C[C@@H](O)[C@H](O)[C@@](C)(CO)[C@@H]5CC[C@]43C)[C@H]2[C@@H]1O,Activity,Hepatocyte [1],8%
same,Activity,Hepatocyte [2],8%
same,Activity,Hepatocyte [3],8%
CC1=C[C@]2(C=C([C@H]3CC[C@@]4(C)[C@@H]5CC[C@H]6C(C)(C)C(=O)C=C[C@]67C[C@]57CC[C@]34C)C(=O)N2)OC1=O,EC50,Hepatocyte [4],167 µM
CC1=C2C3=CC[C@@H]4[C@@]5(C)C[C@@H](O)[C@H](O)[C@@](C)(CO)[C@@H]5[C@H](O)C[C@@]4(C)[C@]3(C)CC[C@@]2(C(=O)O[C@@H]2O[C@H](CO)[C@@H](O)[C@H](O)[C@H]2O)CC[C@H]1C [QUADRANOSIDE V],IC50,Hepatocyte [5],30.2 µM
same,Activity,Hepatocyte [6],67.5%
CC(=O)N[C@@H](CS)C(=O)O [ACETYLCYSTEINE],EC50,Hepatocyte [4],106 µM
CC1(C)CC[C@]2(C(=O)O[C@@H]3O[C@H](CO)[C@@H](O)[C@H](O)[C@H]3O)CC[C@]3(C)[C@H](C=C[C@@H]4[C@@]5(C)C[C@@H](O)[C@H](O)[C@@](C)(CO)[C@@H]5CC[C@]43C)[C@H]2[C@@H]1O,Activity,Hepatocyte [1],8%
same,Activity,Hepatocyte [2],8%
same,Activity,Hepatocyte [3],8%
CC1(C)CC[C@]2(C(=O)O[C@@H]3O[C@H](CO)[C@@H](O)[C@H](O)[C@H]3O)CC[C@]3(C)C(=CC[C@@H]4[C@@]5(C)CC[C@H](O[C@@H]6O[C@H](CO)[C@@H](O)[C@H](O)[C@H]6O)C(C)(C(=O)O)[C@@H]5CC[C@]43C)[C@@H]2C1 (some centres not stated),Activity,[7],271 IU/L
same,Activity,[8],279 IU/L
COC(=O)[C@]12CC[C@@H](C)[C@H](C)[C@H]1C1=CC[C@@H]3[C@@]4(C)C[C@@H](OC(C)=O)C(=O)[C@@](C)(C=O)[C@@H]4CC[C@@]3(C)[C@]1(C)CC2,Activity,Rattus norvegicus,66.4%
CC1=C[C@]2(C=C([C@H]3CC[C@@]4(C)[C@@H]5CC[C@H]6C(C)(C)C(=O)C=C[C@@]67C[C@@]57CC[C@]34C)C(=O)N2)OC1=O,EC50,Hepatocyte [4],126 µM
CC1(C)CC[C@]2(C(=O)O[C@@H]3O[C@H](CO)[C@@H](O)[C@H](O)[C@H]3O[C@@H]3OC[C@@H](O)[C@H](O)[C@H]3O)CC[C@]3(C)C(=CC[C@@H]4[C@@]5(C)C[C@@H](O)[C@@H](O)[C@@](C)(CO)[C@@H]5CC[C@]43C)[C@@H]2[C@@H]1O,Activity,[9],64%
same,Activity,[10],64%
CC(=O)O[C@H]1CC[C@]2(C)[C@H]3CC=C4[C@@H]5CC(C)(C)CC[C@]5(C(=O)O)CC[C@@]4(C)[C@]3(C)CC[C@H]2C1(C)C [ACETYL OLEANOLIC ACID],Activity,Hepatocyte [11],27.8 IU/L
same,Activity,Hepatocyte [12],17.5 IU/L
same,Activity,Hepatocyte [13],16.1 IU/L
CC1=C(C)[C@H]2C3=CC[C@@H]4[C@@]5(C)C[C@@H](O)[C@H](O)[C@@](C)(CO)[C@@H]5CC[C@@]4(C)[C@]3(C)CC[C@@]2(C(=O)O[C@@H]2O[C@H](CO)[C@@H](O)[C@H](O)[C@H]2O)CC1,IC50,Hepatocyte [5],33.6 µM
same,Activity,Hepatocyte [6],8.3%
CC1(C)CC[C@]2(C(=O)O[C@@H]3O[C@H](CO)[C@@H](O)[C@H](O)[C@H]3O)CC[C@]3(C)C(=CC[C@@H]4[C@@]5(C)C[C@@H](O)[C@@H](O)[C@](C)(CO)[C@@H]5CC[C@]43C)[C@@H]2[C@@H]1O,Activity,[9],61%
same,Activity,[10],61%
CC1(C)C[C@H]2C3=C[C@@H](O)[C@@H]4[C@@]5(C)CCC(=O)C(C)(C)C5CC[C@@]4(C)[C@]3(C)CC[C@@]2(C(=O)O)CC1=O (some centres not stated),Activity,Mus musculus [14],24%
CO[C@@H]1C=C2[C@@H]3CC(C)(C)C(=O)C[C@]3(C(=O)O)CC[C@@]2(C)[C@]2(C)CCC3C(C)(C)C(=O)CC[C@]3(C)[C@@H]12 (some centres not stated),Activity,Mus musculus [14],48%
C[C@@]1(CO)CC[C@]2(C(=O)O[C@@H]3O[C@H](CO)[C@@H](O)[C@H](O)[C@H]3O)CC[C@]3(C)[C@H](C=C[C@@H]4[C@@]5(C)C[C@@H](O)[C@H](O)[C@@](C)(CO)[C@@H]5CC[C@]43C)[C@H]2C1,Activity,Hepatocyte [1],8%
same,Activity,Hepatocyte [2],8%
same,Activity,Hepatocyte [15],15.1%
same,Activity,Hepatocyte [3],8%
COC(=O)[C@]12CC[C@@H](C)[C@H](C)[C@H]1C1=CC[C@@H]3[C@@]4(C)C[C@@H](OC)C(=O)[C@@](C)(C=O)[C@@H]4CC[C@@]3(C)[C@]1(C)CC2,Activity,Rattus norvegicus,52.3%
C=C(C)[C@@H]1CC[C@]2(C(=O)O[C@@H]3O[C@H](CO)[C@@H](O)[C@H](O)[C@H]3O)CC[C@]3(C)[C@H](CC[C@@H]4[C@@]5(C)C[C@@H](O)[C@H](O)C(C)(C)[C@@H]5CC[C@]43C)[C@@H]12,Activity,Hepatocyte [16],37.6%
C[C@@]1(CO)CC[C@]2(C(=O)O[C@@H]3O[C@H](CO[C@@H]4O[C@H](CO)[C@@H](O)[C@H](O)[C@H]4O)[C@@H](O)[C@H](O)[C@H]3O)CC[C@]3(C)C(=CC[C@@H]4[C@@]5(C)CC[C@H](O[C@@H]6O[C@H](CO)[C@@H](O)[C@H](O)[C@H]6O)[C@@](C)(C(=O)O)[C@@H]5CC[C@]43C)[C@@H]2C1,Activity,[7],215 IU/L
CC1(C)CC[C@]2(C(=O)O[C@@H]3O[C@H](CO)[C@@H](O)[C@H](O)[C@H]3O[C@@H]3OC[C@@H](O)[C@H](O)[C@H]3O)CC[C@]3(C)C(=CC[C@@H]4[C@@]5(C)C[C@@H](O)[C@@H](O)C(C)(C)[C@@H]5CC[C@]43C)[C@@H]2[C@@H]1O,Activity,[9],68%
same,Activity,[10],68%
C[C@@H]1CC[C@]2(C(=O)O[C@@H]3O[C@H](CO)[C@@H](O)[C@H](O)[C@H]3O)CC[C@]3(C)C(=CC[C@@H]4[C@@]5(C)C[C@@H](O)[C@H](O)C(C)(C)[C@@H]5CC[C@]43C)[C@@H]2[C@]1(C)O,IC50,Hepatocyte [17],35.5 µM
same,inhibition in vivo at 100 mg/kg,Mus musculus [18],65.2%
same,inhibition in vivo at 100 mg/kg,Mus musculus [19],71.1%
same,IC50,Hepatocyte [5],55.7 µM
CC1(C)C[C@H]2C3=CC[C@@H]4[C@@]5(C)CCC(=O)C(C)(C)C5CC[C@@]4(C)[C@]3(C)CC[C@@]2(C(=O)O)CC1=O (some centres not stated),Activity,Mus musculus [14],43%
C[C@@H]1CC[C@]2(C(=O)O[C@@H]3O[C@H](CO)[C@@H](O)[C@H](O)[C@H]3O)CC[C@]3(C)C(=CC[C@@H]4[C@@]5(C)C[C@@H](O)[C@@H](O)C(C)(C)[C@@H]5CC[C@]43C)[C@@H]2[C@]1(C)O,IC50,Hepatocyte [17],14.1 µM
same,inhibition in vivo at 100 mg/kg,Mus musculus [18],59.7%
same,inhibition in vivo at 100 mg/kg,Mus musculus [19],57.2%
C=C(C)[C@@H]1CC[C@]2(C(=O)O[C@@H]3O[C@H](CO)[C@@H](O)[C@H](O)[C@H]3O)CC[C@]3(C)[C@H](CC[C@@H]4[C@@]5(C)C[C@@H](O)[C@H](O)[C@](C)(CO)[C@@H]5CC[C@]43C)[C@@H]12,Activity,Hepatocyte [16],40.9%
C[C@@]1(CO)CC[C@]2(C(=O)O[C@@H]3O[C@H](CO[C@@H]4O[C@H](CO)[C@@H](O)[C@H](O)[C@H]4O)[C@@H](O)[C@H](O[C@@H]4O[C@H](CO)[C@@H](O)[C@H](O)[C@H]4O)[C@H]3O)CC[C@]3(C)C(=CC[C@@H]4[C@@]5(C)CC[C@H](O[C@@H]6O[C@H](CO)[C@@H](O)[C@H](O)[C@H]6O)[C@@](C)(C(=O)O)[C@@H]5CC[C@]43C)[C@@H]2C1,Activity,[7],253 IU/L
CC1=C[C@@]2(C[C@H]([C@H]3CC[C@@]4(C)[C@@H]5CC[C@H]6C(C)(C)[C@@H](O)C=C[C@@]67C[C@@]57CC[C@]34C)[C@H](O)O2)OC1=O,EC50,[20],37.9 µM
CC1(C)CC[C@]2(CO)CC[C@]3(C)C(=CC[C@@H]4[C@@]5(C)CC[C@H](O)C(C)(C)[C@@H]5CC[C@]43C)[C@@H]2C1 [ERYTHRODIOL],Activity,Huh-7,40.2 U/ml
CC1=C[C@@]2(C[C@H]([C@H]3CC[C@@]4(C)[C@@H]5CC[C@H]6C(C)(C)[C@@H](O)C=C[C@@]67C[C@@]57CC[C@]34C)[C@@H](O)O2)OC1=O,EC50,[20],123 µM
